According to patent US6576670B1, “Use of a 5HT2A and 5HT2A/C receptor antagonist for treating snoring and high resistance syndrome of upper anatomical airways” (Sanofi—Synthelabo, priority 1998, dated 2003):
Where two headings read alike, the source gives them in different places.

What was measured:
[1] = decerebrated newborn rats; cited from earlier work
[2] = decerebrated newborn cats; high doses; cited from earlier work
5HT2 receptor [3] = details: in vivo; cited from earlier work
5HT2A receptor = 5HT2A receptor (Homo sapiens, UniProt P28223); details: cited from earlier work
5HT1D receptor = details: cited from earlier work
slow wave sleep = test: sleep study in young healthy subjects; type: in vivo, human; details: young (18 to 35 years old) healthy subjects
5HT2 receptor [4] = details: rodents; cited from earlier work
5HT1B receptor = 5HT1B receptor (Homo sapiens, UniProt P28222); details: cited from earlier work
[5] = tested on: upper airway high resistance syndrome; test: double blind clinical study versus placebo in upper airway high resistance syndrome; type: in vivo, human; details: patients; gelatin capsule, for example 5 mg, daily with the evening meal
Experimental: The effect of compound A is determined during a clinical study carried out according to a double blind design versus placebo in which patients with upper airway high resistance syndrome characterized by the presence of respiratory efforts with repeated wakefulness or microwakefulness and clinical symptoms such as diurnal somnolence and/or hypertension and/or fatigue and/or morning headache and/or nycturia, and the like took part. One gelatin capsule containing an active dose of compound A, for example 5 mg, is administered daily with the evening meal.

5HT2C receptor = molecular target: T1, 5HT2C receptor (Homo sapiens, UniProt P28335); details: cited from earlier work
T1 sequence (P28335 33-458): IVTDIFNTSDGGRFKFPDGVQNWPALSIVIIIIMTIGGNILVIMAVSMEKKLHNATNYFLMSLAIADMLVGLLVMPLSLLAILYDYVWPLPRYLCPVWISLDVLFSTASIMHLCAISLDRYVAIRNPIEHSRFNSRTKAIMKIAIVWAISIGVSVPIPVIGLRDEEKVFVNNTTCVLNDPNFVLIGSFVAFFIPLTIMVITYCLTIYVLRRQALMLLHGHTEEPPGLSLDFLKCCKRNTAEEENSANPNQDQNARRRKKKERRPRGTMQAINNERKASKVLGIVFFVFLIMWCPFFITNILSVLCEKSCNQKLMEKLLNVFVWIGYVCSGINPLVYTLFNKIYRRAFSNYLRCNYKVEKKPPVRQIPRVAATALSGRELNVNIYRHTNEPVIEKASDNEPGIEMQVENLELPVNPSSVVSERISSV

[6] = molecular target: T2, rat stomach fundus (5HT2B) (Rattus norvegicus, UniProt P30994); details: isolated tissue; indicates 5HT2A specificity versus 5HT2B; cited from earlier work
T2 construct: from tissue; host or cells: rat stomach fundus (isolated tissue)

spinal 5HT2 receptors = details: newborn rat tissue preparations in vitro, cited from earlier work
5HT1A receptor = molecular target: T3, 5HT1A receptor (Homo sapiens, UniProt P08908); details: cited from earlier work
T3 sequence (P08908 1-422): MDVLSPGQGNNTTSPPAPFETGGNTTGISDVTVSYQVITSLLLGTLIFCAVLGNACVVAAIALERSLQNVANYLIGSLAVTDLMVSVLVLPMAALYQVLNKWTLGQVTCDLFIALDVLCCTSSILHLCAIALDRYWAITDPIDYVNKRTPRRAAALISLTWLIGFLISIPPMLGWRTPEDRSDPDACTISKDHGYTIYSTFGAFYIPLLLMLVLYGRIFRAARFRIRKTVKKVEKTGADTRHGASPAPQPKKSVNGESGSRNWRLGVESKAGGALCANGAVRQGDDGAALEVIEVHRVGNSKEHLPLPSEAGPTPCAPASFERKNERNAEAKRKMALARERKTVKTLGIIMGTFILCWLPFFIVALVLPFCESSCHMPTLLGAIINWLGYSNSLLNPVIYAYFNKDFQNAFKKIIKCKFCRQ

5HT2 receptor [7] = details: rats; cited from earlier work
5HT2 receptors = details: administered systemically; English bulldog; cited from earlier work

Chain of 5HT1B receptor (P28222 whole entry): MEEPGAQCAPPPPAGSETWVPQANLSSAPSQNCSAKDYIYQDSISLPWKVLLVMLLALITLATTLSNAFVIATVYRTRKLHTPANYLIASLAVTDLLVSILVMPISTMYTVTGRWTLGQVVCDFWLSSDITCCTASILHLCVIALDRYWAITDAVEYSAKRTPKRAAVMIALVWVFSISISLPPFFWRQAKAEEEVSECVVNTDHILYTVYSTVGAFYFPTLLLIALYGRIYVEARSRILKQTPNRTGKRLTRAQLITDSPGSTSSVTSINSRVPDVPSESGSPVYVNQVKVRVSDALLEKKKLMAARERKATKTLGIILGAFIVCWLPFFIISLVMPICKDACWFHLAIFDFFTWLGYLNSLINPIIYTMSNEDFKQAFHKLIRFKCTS
T2 sequence (P30994 whole entry): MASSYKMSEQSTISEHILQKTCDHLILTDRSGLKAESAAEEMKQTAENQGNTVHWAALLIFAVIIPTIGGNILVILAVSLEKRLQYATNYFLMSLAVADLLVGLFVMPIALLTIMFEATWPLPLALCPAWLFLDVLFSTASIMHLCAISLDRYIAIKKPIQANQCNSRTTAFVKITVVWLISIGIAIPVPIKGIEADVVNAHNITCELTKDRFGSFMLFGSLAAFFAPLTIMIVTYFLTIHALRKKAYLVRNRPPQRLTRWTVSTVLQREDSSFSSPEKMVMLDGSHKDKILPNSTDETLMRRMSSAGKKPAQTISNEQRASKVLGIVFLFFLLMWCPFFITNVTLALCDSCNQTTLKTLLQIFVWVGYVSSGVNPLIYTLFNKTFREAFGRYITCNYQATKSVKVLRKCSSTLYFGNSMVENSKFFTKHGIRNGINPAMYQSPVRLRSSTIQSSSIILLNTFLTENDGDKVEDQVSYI
Chain of 5HT2A receptor (P28223 whole entry): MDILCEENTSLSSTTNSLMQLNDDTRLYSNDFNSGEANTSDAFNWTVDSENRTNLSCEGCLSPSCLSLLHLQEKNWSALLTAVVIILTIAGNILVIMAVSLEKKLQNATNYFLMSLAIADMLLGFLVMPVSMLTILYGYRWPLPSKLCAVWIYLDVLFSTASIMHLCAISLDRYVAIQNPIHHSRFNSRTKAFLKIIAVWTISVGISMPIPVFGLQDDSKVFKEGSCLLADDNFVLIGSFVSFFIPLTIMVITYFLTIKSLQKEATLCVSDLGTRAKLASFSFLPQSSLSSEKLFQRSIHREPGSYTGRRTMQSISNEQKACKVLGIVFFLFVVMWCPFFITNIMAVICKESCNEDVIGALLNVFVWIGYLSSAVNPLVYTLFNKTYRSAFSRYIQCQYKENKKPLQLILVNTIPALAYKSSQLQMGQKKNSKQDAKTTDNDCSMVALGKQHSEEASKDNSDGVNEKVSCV

Question: What does the source list for NCCc1c[nH]c2ccc(O)cc12 [5-hydroxytryptamine]?
Answer: apnea after administration [1]: no apnea; apnea after administration [2]: induced prolonged central apneas

Question: With CN(C)CCSc1nc2ccccc2cc1-c1ccccc1 [ICI 169 369] as the compound, how does the “slow wave sleep time” value (5HT2 receptor [3]) read?
Answer: regulate or increase

Question: With CN(C)CCO/N=C(/C=C/c1ccc(O)cc1)c1ccccc1F [compound A, (1Z,2E)-1-(2-fluorophenyl)-3-(4-hydroxyphenyl)prop-2-en-1-one-O-(2-dimethylaminoethyl)oxime hemifumarate] as the compound, how does the “antagonism of the 5HT2A receptor” value (5HT2A receptor) read?
Answer: antagonist which is specific for the 5HT2A receptor

Question: And the “affinity for the 5HT1D receptor” value (5HT1D receptor)?
Answer: no affinity

Question: And the paradoxical sleep (slow wave sleep)?
Answer: not being modified

Question: And the “stages 1 and 2 of slow wave sleep” value (slow wave sleep)?
Answer: slightly reduced

Question: What about the “duration of stages 3 and 4 of slow wave sleep” value (slow wave sleep; from the dose of 1 mg) of the same compound?
Answer: doubling

Question: And the “binding in the brain” value (5HT2 receptor [4])?
Answer: predominantly binds to the regions of the brain containing the 5HT2 receptor

Question: And the “affinity for the 5HT1B receptor” value (5HT1B receptor)?
Answer: no affinity

Question: What about the clinical symptoms [5] of the same compound?
Answer: reduction

Question: And the “number of wakings or microwakings” value [5]?
Answer: marked reduction

Question: And the respiratory efforts [5]?
Answer: marked reduction

Question: What about the “affinity for the 5HT2C receptor” value (5HT2C receptor) of the same compound?
Answer: moderate affinity

Question: What about the “activity on rat stomach fundus” value [6] of the same compound?
Answer: absence of activity

Question: And the “depressant effect of 5-hydroxytryptamine on the activity of the hypoglossal nerve” value (spinal 5HT2 receptors)?
Answer: inhibits

Question: What about the “tonic cervical activity induced by 5-hydroxytryptamine” value (spinal 5HT2 receptors; pretreatment) of the same compound?
Answer: prevents or significantly reduces

Question: What about the “affinity for the 5HT1A receptor” value (5HT1A receptor) of the same compound?
Answer: no affinity

Question: With O=C(c1ccc(F)cc1)C1CCN(CCn2c(=O)[nH]c3ccccc3c2=O)CC1 [ketanserin] as the compound, how does the “apnea induced by 5-HT” value (5HT2 receptor [7]) read?
Answer: inhibit

Question: And the “increase in pulmonary resistance induced by 5-HT” value (5HT2 receptor [7])?
Answer: inhibit

Question: Which results are given for Cc1nc2sccn2c(=O)c1CCN1CCC(=C(c2ccc(F)cc2)c2ccc(F)cc2)CC1 [ritanserin]?
Answer: activity of the diaphragm (5HT2 receptors): slight reduction; activity of the dilatory muscle of the upper respiratory tracts (5HT2 receptors): marked reduction; slow wave sleep time (5HT2 receptor [3]): regulate or increase
